In patent US20090258850A1, “STABILIZED THERAPEUTIC COMPOSITIONS AND FORMULATIONS” (priority 2007, published 2009):

B1: TPO: TPO injected IP in mice; promotes CFU-S reconstitution (protein, UniProt P40226 22-356, looked up)
Thrombopoietin: SPVAPACDPRLLNKLLRDSHLLHSRLSQCPDVDPLSIPVLLPAVDFSLGEWKTQTEQSKAQDILGAVSLLLEGVMAARGQLEPSCLSSLLGQLSGQVRLLLGALQGLLGTQLPLQGRTTAHKDPNALFLSLQQLLRGKVRFLLLVEGPTLCVRRTLPTTAVPSSTSQLLTLNKFPNRTSGLLETNFSVTARTAGPGLLSRLQGFRVKITPGQLNQTSRSPVQISGYLNRTHGPVNGTHGLFAGTSLQTLEASDISPGAFNKGSLAFNLQGGLPPSPSLAPDGHTPFPPSPALPTTHGSPPQLHPLFPDPSTTMPNSTAPHPVTMYPHPRNLSQET
B2: Peg-G-CSF: Peg-G-CSF injected IP in mice (protein, UniProt P09919 31-207, looked up)
Granulocyte …: TPLGPASSLPQSFLLKCLEQVRKIQGDGAALQEKLVSECATYKLCHPEELVLLGHSLGIPWAPLSSCPSQALQLAGCLSQLHSGLFLYQGLLQALEGISPELGPTLDTLQLDVADFATTIWQQMEELGMAPALQPTQGAMPAFASAFQRRAGGVLVASHLQSFLEVSYRVLRHLAQP
modifications: PEGylated
notes: Peg-G-CSF injected IP in mice

Tests used:
[1] = system: rhesus monkeys subjected to 6 Gy TBI; conditions: in vivo
[2] = system: BALB/c mice exposed to 6 Gy TBI; assay: Radioprotective effect in BALB/c mice after midlethal 6 Gy TBI; assay type: in vivo
Procedure: (§1) Combination Treatment with androst-5-ene-3β,17β-diol formulation and TPO. For direct measurements of the radioprotective effect of 5-AED, BALB/c mice were exposed to a midlethal dose of 6 Gy TBI. Two hours after TBI, mice were injected IM with 40 mg/kg 5-AED or the carrier as placebo, with or without 0.225 μg TPO or 10 μg Peg-G-CSF IP. Radioprotective effects of 5-AED on immature repopulating cell subsets were assessed by exposing BALB/c donor mice to 3 fractions of 2 Gy TBI, separated by 24 hours, and treatment with 40 mg/Kg/d 5-AED or the carrier IM, or 0.7 μg TPO IP after each fraction or a single injection of 10 μg Peg-G-CSF IP after the first fraction. Twenty four hours after the last fraction, bone marrow of donor mice was examined for immature cell content per femur using the marrow repopulating ability (MRA day 13) assay and the CFU-S day 12 after transplantation in 8 Gy irradiated mice.

[3] = system: immature repopulating cells in bone marrow of BALB/c donor mice; assay: Immature repopulating cell subsets (CFU-S day 12, MRA day 13) after fractionated 3x2 Gy TBI of BALB/c donor mice; assay type: in vivo; conditions: fractionated 3×2 Gy TBI; for increase in CFU-S day 12 relative to radiation controls: 40 mg/Kg/d 5-AED IM, 0.7 μg TPO IP after each fraction
Procedure: as §1

non-irradiated monkeys = conditions: 15 mg/Kg/d i.m. x5 days, no TBI
Procedure: Primates used in this study were purpose bred rhesus monkeys (Macaca Mulatta), weighing 2.5 to 4.0 Kg each and aged 2 to 3 years. 5-Androstene-3β,17β-diol (5-AED), prepared as a 100 mg/mL aqueous suspension using 7.4 mM sodium phosphate buffer, pH 6.0, containing 0.5% polysorbate 80, 0.02% benzalkonium chloride and 4.8% mannitol and its vehicle, consisting of the identical formulation without 5-AED, was administered intramuscularly (i.m.) at a dose of 15 mg/kg/d (150 μL/Kg/d), for 5 consecutive days. […] 5-AED and vehicle were administered by deep intramuscular injections into alternating left and right m. vastus lateralis. In the second study, 10 animals (3 males and 2 females in each group) received either 15 mg/Kg/d (150 μL/Kg/d), 5-AED in a stabilized formulation or vehicle for 5 consecutive days, but were not subjected to TBI.
Clinical pathology was conducted as follows: Bone marrow was aspirated under neurolept anesthesia using Ketalar (Apharmo, Arnhem, the Netherlands) and Domitor (Pfizer, Capelle a/d lJssel, The Netherlands). Small bone marrow aspirates for analytical purposes were taken from the shafts of the femurs or humeri using pediatric spinal needles and collected in bottles containing 2 mL HEPES buffered Hanks' balanced salt solution (HBBS) with 200 IU sodium heparin/mL (Leo Pharmaceutical Products, Weesp, the Netherlands). Low-density cells were isolated using Lymphoprep (density 1.077, Fresenius, Oslo, Norway) separation. Cells were plated in 35-mm dishes (Falcon 1008, Becton Dickinson, Leiden, The Netherlands) in 1 mL enriched Dulbecco's medium containing 0.8% methylcellulose, 5% FCS, and additives. […] Colony counts were calculated per mL of bone marrow aspirated using the recovery of cells over the Ficoll density gradient. […] Complete blood cell counts were measured daily using an ABC-vet animal blood counter (Scil, ABX diagnostics, Montpellier, France). […] Measurements were done using a FACSCalibur (Becton Dickinson, Leiden, The Netherlands) and 50,000 events were collected in duplicate and analyzed using the CellQuest (Becton Dickinson) software. […]

Molecule | bone marrow cellularity [1] | day reticulocytes reached levels >0.05×10^9/mL in peripheral blood [1] [day] | direct local or systemic toxic effects [1] | edema [1] | increase in body weight due to fluid retention [1] | increase of CD34+ cells in BM in comparison to HERF-418 treated monkeys [1] [fold] | neutrophil recovery [1] | reduction of the period of leukopenia [1] [days] | shortening of the time to transfusion-independence [1] [days] | transfusions needed to maintain platelets levels of >40×10^6/mL [1] | multilineage recovery (white blood cells, platelets, red blood cells, bone marrow cellularity, colony forming cells) ([2]; 40 mg/kg IM 2 hours after 6 Gy TBI, 14 days post-TBI vs placebo) | effect of increasing the dose on multilineage recovery ([2]; dose up to 200 mg/kg) | increase in CFU-S day 12 relative to radiation controls [3] [fold] | MRA, expressed as GM-CFU per femur at 13 days after transplantation ([3]; 40 mg/Kg/d IM, range 0-5785) [colonies] | day of maximum neutrophilic granulocyte increase after initiation of the treatment (non-irradiated monkeys) [days] | effect on other hematopoietic lineages, bone marrow cellularity and progenitor cell content (non-irradiated monkeys) | increase from baseline levels in neutrophilic granulocytes in the peripheral blood (non-irradiated monkeys; n=5) [fold] | effect on CFU-S day 12 ([3]; single injection 10 μg Peg-G-CSF IP after first fraction)
C[C@]12CC[C@H]3[C@@H](CC=C4C[C@@H](O)CC[C@@]43C)[C@@H]1CC[C@@H]2O [5-AED, androst-5-ene-3β,17β-diol] | 8.7±5.3 ×10^6 cells/mL bone marrow aspirate | 19.0±1.1 | not observed | transient edema, which resolved without sequela | up to 13.6% | 90 | accelerated neutrophil recovery | 4 | 4 | 1.3±0.5 | accelerated multilineage recovery | did not augment this effect | 5 | 1002 | 2 | did not affect | 3.6 | –
B1 | – | – | – | – | – | – | – | – | – | – | – | – | 7 | – | – | – | – | –
B2 | – | – | – | – | – | – | – | – | – | – | – | – | – | – | – | – | – | did not affect
